Test results from US20240092779A1, “USP1 INHIBITORS AND USES THEREOF” (Zentaur Therapeutics USA Inc., priority 2022, published 2024).

Experiments:
HCC1806 Ub-PCNA (USP1) = test: USP1 Western Blot Protocol (HCC1806 Ub-PCNA); assay type: cell-based; conditions: HCC1806 cells, 4 hours
Text: USP1 Western Blot Protocol (HCC1806 Ub-PCNA)
USP1 is a deubiquitinase that catalyze the hydrolysis of iso-peptide bond between ubiquitin and the substrate proteins. Inhibition of USP1 activity results in accumulation of mono-ubiquitinated substrate such as Ub-PCNA. A cell assay was set up to determine the cellular potency of USP1 compounds by monitoring the accumulation of Ub-PCNA. The signal intensity was detected by a specific Ub-PCNA antibody through Western-blot analysis.
The assay was initiated by seeding HCC1806 cells (ATCC, CRL-2335) into 6-well plates (Corning, 3516), with a seeding density of 3×10^5 cells per well and 2 mL RPMI 1640 culture medium (Gibco, 11875119). The plates were incubated overnight at 37° C. and 5% CO2. Compounds, solubilized in DMSO (Solarbio, D8371) as 1 mM stock solution, were diluted in 4-fold steps for 5-cencentration point dose response plus a no-compound DMSO control. Diluted compounds (2 μL) were transferred into assay wells (with a final DMSO concentration of −0.1%) and the resulted assay plates incubated at 37° C. and 5% CO2 for 4 hours. After aspiration of culture medium, 100 μL of 4° C. RIPA lysis buffer (Boston BioProducts, BP-115D) supplemented with vendor recommended concentrations of protease (Roche, 4693116001) and phosphatase (Roche, 4906837001) inhibitor, was added to each well and incubated for 10 minutes on the ice. Cells were scrapped loose from the bottom of well with a scraper (Corning, 3008), transferred into a 600 μL EP tube, sonicated using Ultrasound (Qsonica, Q800R3, with 30% energy, 5-second pulse on/off cycles at 4° C., for total 2 minutes), centrifuged 13,000 rpm for 15 minutes at 4° C., and then the supernatant transferred to a new 600 μL EP tube. The total protein concentration was determined using BCA kit following vendor recommended protocol (Solarbio, PC0020-500). Loading samples were prepared by diluting the total protein concentration to 1.5 μg/μL with 5 X NuPAGE SDS loading buffer (Beyotime, P0015L) and RIPA lysis buffer, and boiling at 100° C. for 5 minutes.
15 μg protein from each sample was loaded onto NuPAGE® Novex 4-12% Bis-Tris Midi Gel, 26 W (Invitrogen, WG1403BOX) and electrophoresis was run at 80 V for 30 minutes and 120 V till the end using 1x NuPAGE® MOPS SDS Running Buffer (Novex, NP0001). The gel was then transferred to nitrocellulose membrane using the dry transfer system (iBlot 2 Transfer Stacks, nitrocellulose, D323001) with a program consisting of 20 V for 1 minute, 23 V for 4 minutes and 25 V for 2 minutes. After the membrane was blocked with 5% BSA (Solarbio, A8020) in 1X TBST (CST, 9997S) for 1 hour at room temperature, specific antibodies (Ubiquityl-PCNA antibody (CST, 13439) at 1:500 dilution, PCNA antibody (Santa Cruz, sc-56) at 1:1000 dilution, and GAPDH (CST, 5174) at 1:2000 dilution in 1 X TBST containing 1% BSA) were added and incubated at room temperature for 1.5 hours. After washing the Nitrocellulose membranes with 1 X TBST for 3 times, 10 minutes each time at room temperature, fluorescently labeled secondary antibodies (anti-rabbit IgG, Licor, 926-32211; anti-mouse IgG, LI-COR, 926-68070) at 1:5000 dilution in 1 X TBST containing 1% BSA were added and incubated for 1 hour at room temperature in the dark. The membranes were then rinsed with 1 X TBST and immersed in the RO water. Imaging of band intensity was acquired with Li—COR imaging system (Li—COR, Odyssey clx ES).
Percentage of USP1 inhibition (% Vehicle) was calculated by using following equation examining Ub-PCNA upregulation:
And IC50 was calculated using four-parameter logistic fitting program • Y=Bottom+(Top-Bottom)/(1+10 {circumflex over (()}(LogIC50−X)*Hill Slope)) • X=Log of dose or concentration
(§1) Certain compounds were tested in the assays.

MDA-MB-436 cells = test: CTG Protocol (MDA-MB-436 GI50), antiproliferative activity; assay type: cell-based, human; conditions: MDA-MB-436 cells (BRCA1 mutation), 7-day incubation, CellTiter-Glo
How it was run: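 BRCA1-mutant MDA-MB-436 cells were seeded at 1000 cells/well in DMEM, left overnight, then exposed to a 9-point, 3-fold compound series for 7 days at 37 °C, 5% CO2. Viability was read by CellTiter-Glo luminescence. % inhibition was plotted against concentration to derive GI50.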

[1] = molecular target: T1, recombinant USP1/UAF1 enzyme complex (Homo sapiens, UniProt O94782); test: Enzyme assay: deubiquitinase fluorometric assay with ubiquitin-Rhodamine substrate; assay type: biochemical; conditions: USP1/UAF1, Ub-Rho110 substrate, 2 hours preincubation, 1 hour reaction
T1 construct: purchased Biortus
T1 sequence (O94782 whole entry): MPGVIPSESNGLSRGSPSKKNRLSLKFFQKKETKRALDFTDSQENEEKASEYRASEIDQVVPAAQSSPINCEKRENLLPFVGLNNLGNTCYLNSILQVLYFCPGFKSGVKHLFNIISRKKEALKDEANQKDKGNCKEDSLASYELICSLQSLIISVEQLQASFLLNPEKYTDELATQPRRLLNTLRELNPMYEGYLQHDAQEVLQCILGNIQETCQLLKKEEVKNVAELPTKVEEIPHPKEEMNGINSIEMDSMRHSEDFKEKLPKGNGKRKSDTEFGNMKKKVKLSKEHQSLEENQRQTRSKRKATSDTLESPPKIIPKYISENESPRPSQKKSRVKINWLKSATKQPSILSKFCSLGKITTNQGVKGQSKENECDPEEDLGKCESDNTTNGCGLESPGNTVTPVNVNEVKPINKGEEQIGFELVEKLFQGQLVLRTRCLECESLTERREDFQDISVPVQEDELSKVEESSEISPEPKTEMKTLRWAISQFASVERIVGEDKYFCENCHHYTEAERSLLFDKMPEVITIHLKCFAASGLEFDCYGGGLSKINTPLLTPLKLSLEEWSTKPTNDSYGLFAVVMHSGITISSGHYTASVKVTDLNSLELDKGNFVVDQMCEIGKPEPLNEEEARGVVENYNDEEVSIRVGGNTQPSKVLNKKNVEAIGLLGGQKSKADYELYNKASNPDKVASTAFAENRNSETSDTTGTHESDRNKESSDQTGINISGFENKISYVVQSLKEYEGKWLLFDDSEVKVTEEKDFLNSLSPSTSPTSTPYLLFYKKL
T1 sequence (Q8TAF3 whole entry partner): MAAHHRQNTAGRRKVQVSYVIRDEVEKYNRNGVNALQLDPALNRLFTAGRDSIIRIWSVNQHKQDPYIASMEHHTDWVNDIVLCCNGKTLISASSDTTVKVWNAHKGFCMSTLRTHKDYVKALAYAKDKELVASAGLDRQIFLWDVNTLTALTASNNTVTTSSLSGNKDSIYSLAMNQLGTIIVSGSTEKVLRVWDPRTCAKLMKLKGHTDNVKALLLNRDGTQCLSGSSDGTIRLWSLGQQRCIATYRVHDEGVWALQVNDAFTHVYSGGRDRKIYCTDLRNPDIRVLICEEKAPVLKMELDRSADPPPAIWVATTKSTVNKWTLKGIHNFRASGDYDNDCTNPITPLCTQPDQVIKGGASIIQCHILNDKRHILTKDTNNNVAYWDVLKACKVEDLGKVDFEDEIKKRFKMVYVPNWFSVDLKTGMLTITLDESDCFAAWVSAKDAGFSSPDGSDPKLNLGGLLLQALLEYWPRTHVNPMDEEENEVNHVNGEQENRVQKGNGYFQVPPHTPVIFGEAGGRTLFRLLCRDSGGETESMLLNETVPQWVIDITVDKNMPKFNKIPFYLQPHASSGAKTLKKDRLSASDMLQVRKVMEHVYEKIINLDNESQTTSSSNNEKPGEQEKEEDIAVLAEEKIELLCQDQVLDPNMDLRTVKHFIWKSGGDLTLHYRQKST
Method: Enzymatic inhibitory potency of the compounds was assessed in a deubiquitinase fluorometric assay using ubiquitin-Rhodamine (Ub-Rho110, R&D Systems) as substrate and the recombinant USP1/UAF1 enzyme complex (Biortus). Assays were performed in a final volume of 12 μL using black 384-well plates (Corning #4514) containing 50 mM HEPES (pH 7.5, BioRoYee), 0.5 mM EDTA, 1 mM dithiothreitol, 0.1 mg/mL bovine serum albumin, 50 nM Ub-Rhol10, 0.004 nM USP1/UAF1, and series diluted compounds from 10 μM to 0.5 nM (10 dilution steps). Assay-ready plates containing 40 nL of Echo-dispensed compound in DMSO were reconstituted with 2 μL of ddH2O, then 5 μL of USP1/UAF1 enzyme mixture was added and preincubated at room temperature for 2 hours. Enzymatic reaction was initiated by the addition of […] substrate mixture and assay allowed to proceed for 1 hour at room temperature before quenching with 3 μL of 150 mM citric acid. Fluorescence signal was detected via TECAN SPARK with excitation at 485 nm and emission at 535 nm. Data analysis was done using GraphPad Prism8 and IC50 values were obtained by 4-parameter logistic curve fitting.
as §1

| SMILES | IC50 (HCC1806 Ub-PCNA (USP1); Homo sapiens) | GI50 (MDA-MB-436 cells; Homo sapiens, 168 h) | IC50 [1] | IC50 (HCC1806 Ub-PCNA (USP1)) | GI50 (MDA-MB-436 cells) |
| --- | --- | --- | --- | --- | --- |
| COc1ncnc(C2CC2)c1-c1ncc2cc(CN(C)C)c(=O)n(Cc3ccc(-c4nc(C(F)(F)F)cn4C)cc3)c2n1 [Compound 56] | – | – | 10 to 100 nM | 100 to 1000 nM | 10 to 100 nM |
| COc1ncnc(C2CC2)c1-c1ncc2ccc(=O)n(Cc3ccc(-c4nc(C(F)(F)F)cn4C4CC4)cc3)c2c1F [Compound 82] | 10 to 100 nM | 10 to 100 nM | 10 to 100 nM | – | – |
| COc1cc(Cn2c(=O)ccc3cnc(-c4c(OC)ncnc4C4CC4)nc32)cc(F)c1-c1nc(C(F)(F)F)cn1C1CC1 [Compound 53, 8-({4-[1-cyclopropyl-4-(trifluoromethyl)imidazol-2-yl]-3-fluoro-5-methoxyphenyl}methyl)-2-(4-cyclopropyl-6-methoxypyrimidin-5-yl)pyrido[2,3-d]pyrimidin-7-one] | 10 to 100 nM | < 10 nM | 10 to 100 nM | – | – |
| COc1ncnc(C2CC2)c1-c1ncc2cc(C(C)=O)c(=O)n(Cc3ccc(-c4nc(C(F)(F)F)cn4C)cc3)c2n1 [Compound 69] | – | – | 10 to 100 nM | 10 to 100 nM | 10 to 100 nM |
| COc1cc(Cn2c(=O)ccc3cnc(-c4c(OC)ncnc4C4CC4)nc32)cc(F)c1-c1nc(C(F)(F)F)cn1C [Compound 73, 2-(4-Cyclopropyl-6-Methoxypyrimidin-5-Yl)-8-({3-Fluoro-5-Methoxy-4-[1-Methyl-4-(Trifluoromethyl)Imidazol-2-Yl]Phenyl}Methyl)Pyrido[2,3-d]Pyrimidin-7-One] | 10 to 100 nM | 10 to 100 nM | 10 to 100 nM | – | – |
| COc1ncnc(C2CC2)c1-c1ncc2cc(CN3CCN(C)CC3)c(=O)n(Cc3ccc(-c4nc(C(F)(F)F)cn4C)cc3)c2n1 [Compound 55, 2-(4-cyclopropyl-6-methoxypyrimidin-5-yl)-8-({4-[1-methyl-4-(trifluoromethyl)imidazo]-2-yl]phenylmethyl)-6-[(4-methylpiperazin-1-yl)methyl]pyrido[2,3-d]pyrimidin-7-one] | – | – | 10 to 100 nM | 10 to 100 nM | 10 to 100 nM |
| COc1ncnc(C2CC2)c1-c1ncc2c(=O)n(C)c(=O)n(Cc3ccc(-c4nc(C(F)(F)F)cn4C(C)C)cc3)c2n1 [Compound I-26, 7-(4-cyclopropyl-6-methoxypyrimidin-5-yl)-1-({4-[1-isopropyl-4-(trifluoromethyl)imidazol-2-yl]phenyl}methyl)-3-methylpyrimido[4,5-d][1,3]diazine-2,4-dione] | 100 to 1000 nM | 10 to 100 nM | 10 to 100 nM | – | – |
| COc1ncnc(C)c1-c1ncc2ccc(=O)n(Cc3ccc(-c4nc(C(F)(F)F)cn4C)cc3)c2n1 [Compound I-46, 2-(4-Methoxy-6-Methylpyrimidin-5-Yl)-8-({4-[1-Methyl-4-(Trifluoromethyl)Imidazol-2-Yl]Phenyl}Methyl)Pyrido[2,3-d]Pyrimidin-7-One] | 100 to 1000 nM | 100 to 1000 nM | 100 to 1000 nM | – | – |
| COc1ncnc(C2CC2)c1-c1ncc2cc(C(F)F)c(=O)n(Cc3ccc(-c4nc(C(F)(F)F)cn4C)cc3)c2n1 [Compound 77] | – | – | 10 to 100 nM | 10 to 100 nM | 10 to 100 nM |
| COc1ncnc(C2CC2)c1-c1ncc2cc(C3=CCN(C)CC3)c(=O)n(Cc3ccc(-c4nc(C(F)(F)F)cn4C)cc3)c2n1 [Compound 68] | – | – | < 10 nM | 100 to 1000 nM | 10 to 100 nM |
| CC(C)n1ncc(Cl)c1-c1ncc2ccc(=O)n(Cc3ccc(-c4nc(C(F)(F)F)cn4C)cc3)c2n1 [Compound I-44, 2-(4-Chloro-2-Isopropylpyrazol-3-Yl)-8-({4-[1-Methyl-4-(Trifluoromethyl)Imidazol-2-Yl]Phenyl}Methyl)Pyrido[2,3-d]Pyrimidin-7-One] | 10 to 100 nM | 10 to 100 nM | 10 to 100 nM | – | – |

Other lines, results leading:

| IC50 (HCC1806 Ub-PCNA (USP1); Homo sapiens) | GI50 (MDA-MB-436 cells; Homo sapiens, 168 h) | IC50 [1] | IC50 (HCC1806 Ub-PCNA (USP1)) | GI50 (MDA-MB-436 cells) | SMILES |
| --- | --- | --- | --- | --- | --- |
| > 1000 nM | > 1000 nM | 100 to 1000 nM | – | – | COc1ncnc(C2CC2)c1-c1ncc2ccc(=O)n(Cc3ccc(-c4nccc(C(F)(F)F)n4)cc3)c2n1 [Compound I-34] |
| 10 to 100 nM | – | 10 to 100 nM | – | – | COc1ncnc(C2CC2)c1-c1ncc2ccc(=O)n(Cc3ccc(-c4nc(C(F)(F)F)cn4CCO)cc3)c2n1 [Compound 60, 2-(4-cyclopropyl-6-methoxypyrimidin-5-yl)-8-({4-[1-(2-hydroxyethyl)-4-(trifluoromethyl)imidazol-2-yl]phenyl}methyl)pyrido[2,3-d]pyrimidin-7-one] |
| 100 to 1000 nM | 100 to 1000 nM | 100 to 1000 nM | – | – | COc1ncnc(C2CC2)c1-c1ncc2ccc(=O)n(Cc3ccc(-c4cccc(C(F)(F)F)c4)cc3)c2n1 [Compound I-42] |
| 10 to 100 nM | 10 to 100 nM | 10 to 100 nM | – | – | COc1ncnc(C2CC2)c1-c1ncc2ccc(=O)n(Cc3ccc(-c4nc(C(F)(F)F)cn4C4COC4)cc3)c2n1 [Compound 59, 2-(4-cyclopropyl-6-methoxypyrimidin-5-yl)-8-({4-[1-(oxetan-3-yl)-4-(trifluoromethyl)imidazol-2-yl]phenyl}methyl)pyrido[2,3-d]pyrimidin-7-one] |
| 10 to 100 nM | 10 to 100 nM | 10 to 100 nM | – | – | COc1ncnc(C2CC2)c1-c1ncc2ccc(=O)n(Cc3ccc(-c4nc(C(F)(F)F)cn4CC(F)F)cc3)c2n1 [Compound 61, 2-(4-cyclopropyl-6-methoxypyrimidin-5-yl)-8-({4-[1-(2,2-difluoroethyl)-4-(trifluoromethyl)imidazol-2-yl]phenyl}methyl)pyrido[2,3-d]pyrimidin-7-one] |
| 10 to 100 nM | 10 to 100 nM | 10 to 100 nM | – | – | COc1ncnc(C2CC2)c1-c1ncc2ccc(=O)n(Cc3ccc(-c4ncccc4C)cc3)c2n1 [Compound 74, 2-(4-cyclopropyl-6-methoxypyrimidin-5-yl)-8-{[4-(3-methylpyridin-2-yl)phenyl]methyl}pyrido[2,3-d]pyrimidin-7-one] |
| – | 10 to 100 nM | 10 to 100 nM | – | – | COc1ncnc(C2CC2)c1-c1ncc2cc(Br)c(=O)n(Cc3ccc(-c4nc(C(F)(F)F)cn4C)cc3)c2n1 [Compound I-40] |
